Assays:
Test in all cases: Test B pre-/postemergence plant response
Assay type in all cases: in vivo
[1] = tested on: Italian ryegrass (Lolium multiflorum)
How it was run: (§1)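 Compound in solvent + surfactant applied pre-em (loam/sand) or post-em (plants 2–18 cm, peat medium); greenhouse hold 13–15 days; visual 0–100 control score.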

[2] = tested on: bermudagrass (Cynodon dactylon)
How it was run: as §1

corn (Zea mays) = tested on: corn (Zea mays)
How it was run: as §1

[3] = tested on: downy bromegrass (Bromus tectorum)
How it was run: as §1

[4] = tested on: giant foxtail (Setaria faberii)
How it was run: as §1

[5] = tested on: goosegrass (Eleusine indica)
How it was run: as §1

[6] = tested on: green foxtail (Setaria viridis)
How it was run: as §1

[7] = tested on: johnsongrass (Sorghum halepense)
How it was run: as §1

[8] = tested on: large crabgrass (Digitaria sanguinalis)
How it was run: as §1

[9] = tested on: morningglory (Ipomoea coccinea)
How it was run: as §1

[10] = tested on: ragweed (common ragweed, Ambrosia elatior)
How it was run: as §1

[11] = tested on: woolly cupgrass (Eriochloa villosa)
How it was run: as §1

[12] = tested on: yellow nutsedge (Cyperus esculentus)
How it was run: as §1

[13] = Postemergence, 31 g ai/ha, 0 to 100 scale (0 no effect, 100 complete control)
[14] = Postemergence, 62 g ai/ha, scale 0 to 100 (0 no effect, 100 complete control)
[15] = Postemergence, 250 g ai/ha, scale 0 to 100 (0 no effect, 100 complete control), 13 to 15 days
[16] = Postemergence, 125 g ai/ha, scale 0 to 100 (0 no effect, 100 complete control)
[17] = 31 g ai/ha, postemergence, scale 0 to 100, 0 is no effect, 100 is complete control
[18] = 62 g ai/ha, postemergence, 0 is no effect, 100 is complete control, 13 to 15 days
[19] = Postemergence, 125 g ai/ha, visual rating after 13 to 15 days, scale 0 (no effect) to 100 (complete control)
[20] = Postemergence, 250 g ai/ha, scale 0 to 100 (0 no effect, 100 complete control)

**Q.** What does the source list for O=C(C1=C(O)C2CCC(C2)C1=O)c1cnc(-c2ccsc2)n(CC2CCCO2)c1=O (stereo not drawn) [Compound 229]?
**A.** Plant response rating, Ryegrass, Italian [1, 13]: 0; Plant response rating, Ryegrass, Italian [1, 14]: 0; Plant response rating, Ryegrass, Italian [1, 15]: 10; Plant response rating, Bermudagrass [2, 13]: 75; Plant response rating, Bermudagrass [2, 14]: 80; Plant response rating, Bermudagrass [2, 16]: 85; Plant response rating, Bermudagrass [2, 15]: 90; Plant response rating, Corn (corn (Zea mays); [13]): 70; Plant response rating, Corn (corn (Zea mays); [14]): 80; Plant response rating, Corn (corn (Zea mays); [16]): 85; Plant response rating, Corn (corn (Zea mays); [15]): 85; Plant response rating, Bromegrass, Downy [3, 13]: 5; Plant response rating, Bromegrass, Downy [3, 14]: 15; Plant response rating, Bromegrass, Downy [3, 16]: 20; Plant response rating, Bromegrass, Downy [3, 15]: 30; Plant response rating, Foxtail, Giant [4, 13]: 75; Plant response rating, Foxtail, Giant [4, 14]: 80; Plant response rating, Foxtail, Giant [4, 16]: 80; Plant response rating, Foxtail, Giant [4, 15]: 95; Plant response rating, Goosegrass [5, 13]: 70; Plant response rating, Goosegrass [5, 14]: 70; Plant response rating, Goosegrass [5, 16]: 70; Plant response rating, Goosegrass [5, 15]: 80; Plant response rating, Foxtail, Green [6, 13]: 40; Plant response rating, Foxtail, Green [6, 14]: 80; Plant response rating, Foxtail, Green [6, 16]: 80; Plant response rating, Foxtail, Green [6, 15]: 95; Plant response rating, Johnsongrass [7, 13]: 70; Plant response rating, Johnsongrass [7, 14]: 100; Plant response rating, Johnsongrass [7, 16]: 100; Plant response rating, Johnsongrass [7, 15]: 100; Plant response rating, Crabgrass, Large [8, 13]: 80; Plant response rating, Crabgrass, Large [8, 14]: 90; Plant response rating, Crabgrass, Large [8, 16]: 90; Plant response rating, Crabgrass, Large [8, 15]: 90; Plant response rating, Morningglory [9, 13]: 98; Plant response rating, Morningglory [9, 14]: 100; Plant response rating, Morningglory [9, 16]: 100; Plant response rating, Morningglory [9, 15]: 100; Plant response rating, Ragweed [10, 13]: 80; Plant response rating, Ragweed [10, 14]: 80; Plant response rating, Ragweed [10, 15]: 95; Plant response rating, Cupgrass, Woolly [11, 13]: 70; Plant response rating, Cupgrass, Woolly [11, 14]: 75; Plant response rating, Cupgrass, Woolly [11, 16]: 80; Plant response rating, Cupgrass, Woolly [11, 15]: 90; Plant response rating, Nutsedge, Yellow [12, 13]: 0; Plant response rating, Nutsedge, Yellow [12, 14]: 20; Plant response rating, Nutsedge, Yellow [12, 16]: 40; Plant response rating, Nutsedge, Yellow [12, 15]: 55

**Q.** Which results are given for Cc1ccc(-c2ncc(C(=O)C3=C(O)CCCC3=O)c(=O)n2-c2ccccc2)cc1 [Compound 80]?
**A.** Plant response rating, Ryegrass, Italian [1, 17]: 0; Ryegrass, Italian plant response rating (0 to 100 scale) [1, 18]: 0; Plant response rating, Ryegrass, Italian [1, 19]: 5; Plant response rating, Ryegrass, Italian [1, 20]: 5; Plant response rating, Bermudagrass [2, 17]: 20; Bermudagrass plant response rating (0 to 100 scale) [2, 18]: 40; Plant response rating, Bermudagrass [2, 19]: 45; Plant response rating, Bermudagrass [2, 20]: 55; Plant response rating, Corn (corn (Zea mays); [17]): 5; Corn plant response rating (0 to 100 scale) (corn (Zea mays); [18]): 35; Plant response rating, Corn (corn (Zea mays); [19]): 65; Plant response rating, Corn (corn (Zea mays); [20]): 65; Plant response rating, Bromegrass, Downy [3, 17]: 45; Bromegrass, Downy plant response rating (0 to 100 scale) [3, 18]: 60; Plant response rating, Bromegrass, Downy [3, 19]: 60; Plant response rating, Bromegrass, Downy [3, 20]: 80; Plant response rating, Foxtail, Giant [4, 17]: 75; Foxtail, Giant plant response rating (0 to 100 scale) [4, 18]: 90; Plant response rating, Foxtail, Giant [4, 19]: 95; Plant response rating, Foxtail, Giant [4, 20]: 95; Plant response rating, Goosegrass [5, 17]: 70; Goosegrass plant response rating (0 to 100 scale) [5, 18]: 75; Plant response rating, Goosegrass [5, 19]: 80; Plant response rating, Goosegrass [5, 20]: 85; Plant response rating, Foxtail, Green [6, 17]: 90; Foxtail, Green plant response rating (0 to 100 scale) [6, 18]: 95; Plant response rating, Foxtail, Green [6, 19]: 95; Plant response rating, Foxtail, Green [6, 20]: 98; Plant response rating, Johnsongrass [7, 17]: 0; Johnsongrass plant response rating (0 to 100 scale) [7, 18]: 0; Plant response rating, Johnsongrass [7, 19]: 10; Plant response rating, Johnsongrass [7, 20]: 45; Plant response rating, Crabgrass, Large [8, 17]: 75; Crabgrass, Large plant response rating (0 to 100 scale) [8, 18]: 80; Plant response rating, Crabgrass, Large [8, 19]: 90; Plant response rating, Crabgrass, Large [8, 20]: 95; Plant response rating, Morningglory [9, 17]: 85; Morningglory plant response rating (0 to 100 scale) [9, 18]: 100; Plant response rating, Morningglory [9, 19]: 100; Plant response rating, Morningglory [9, 20]: 100; Plant response rating, Ragweed [10, 17]: 50; Ragweed plant response rating (0 to 100 scale) [10, 18]: 60; Plant response rating, Ragweed [10, 19]: 65; Plant response rating, Ragweed [10, 20]: 75; Plant response rating, Cupgrass, Woolly [11, 17]: 65; Cupgrass, Woolly plant response rating (0 to 100 scale) [11, 18]: 70; Plant response rating, Cupgrass, Woolly [11, 19]: 70; Plant response rating, Cupgrass, Woolly [11, 20]: 75; Plant response rating, Nutsedge, Yellow [12, 17]: 10; Nutsedge, Yellow plant response rating (0 to 100 scale) [12, 18]: 15; Plant response rating, Nutsedge, Yellow [12, 19]: 55; Plant response rating, Nutsedge, Yellow [12, 20]: 75
